The nature of data set [1]: AUC (0 to infinity) in Sprague-Dawley rat at 20 mg/kg, po measured after 1 to 24 hrs by HPLC-MS/MS analysis. Format: ADME, organism-based. Particulars: in vivo, time 1-24 hrs.
A short description of data set [2]: Microsomal stability in rat liver microsomes assessed as extraction ratio in presence of NADPH for 0 to 40 mins by LC-MS/MS analysis. Format: ADME, Microsome. Particulars: time 0-40 min, read-out: ERH. For orientation: Liver microsomes are a subcellular fraction often used to study metabolism.
Data set [3] can be described thus: Plasma concentration in Sprague-Dawley rat at 20 mg/kg, po measured after 24 hrs by HPLC-MS/MS analysis. Format: ADME, organism-based.
A short description of data set [4]: in vitro. The settings on record: human, liver microsomes.
Description: Microsomal stability in human liver microsomes assessed as extraction ratio in presence of NADPH for 0 to 40 mins by LC-MS/MS analysis
The nature of data set [5]: Volume of distribution at steady state in CD-1 mouse at 10 mg/kg, iv measured after 1 to 24 hrs by HPLC-MS/MS analysis. Format: ADME, organism-based. Particulars: in vivo, time 1-24 hrs, read-out: Vdss.
Data set [6] is described as follows: Microsomal stability in dog liver microsomes assessed as extraction ratio in presence of NADPH for 0 to 40 mins by LC-MS/MS analysis. It is filed as ADME, Canis lupus familiaris, Microsome. Particulars: time 0-40 min, read-out: ERH.
Data set [7] can be described thus: Elimination half life in Sprague-Dawley rat at 5 mg/kg, iv measured after 1 to 24 hrs by HPLC-MS/MS analysis. The settings on record: in vivo, time 1-24 hrs, read-out: beta t1/2 (converted). Format: ADME, organism-based.
The target in data set [8] is T1, Insulin-like growth factor 1 receptor (Homo sapiens, UniProt P08069). Kind of data set: Inhibition of human recombinant IGF-1 receptor expressed in mouse 3T3 cells treated for 15 mins by ELISA analysis. It is filed as cell-based. In general terms: An ELISA detects its analyte on a solid surface through an enzyme-linked reagent.
Data set [9] in a line: Volume of distribution at steady state in Sprague-Dawley rat at 5 mg/kg, iv measured after 1 to 24 hrs by HPLC-MS/MS analysis. Format: ADME, organism-based. The settings on record: in vivo, time 1-24 hrs, read-out: Vdss.
Data set [10] can be described thus: Oral bioavailability in CD-1 mouse administered at 25 mg/kg measured after 1 to 24 hrs by HPLC-MS/MS analysis. It is filed as ADME, organism-based. Particulars: in vivo, time 1-24 hrs.
Data set [11] can be described thus: Plasma concentration in CD-1 mouse at 25 mg/kg, po measured after 24 hrs by HPLC-MS/MS analysis. Format: ADME, organism-based.
Data set [12] is described as follows: Elimination half life in CD-1 mouse at 25 mg/kg, po measured after 1 to 24 hrs by HPLC-MS/MS analysis. It is filed as ADME, organism-based. Particulars: in vivo, time 1-24 hrs, read-out: beta t1/2 (converted).
Data set [13] is described as follows: Cmax in Sprague-Dawley rat at 20 mg/kg, po measured after 1 to 24 hrs by HPLC-MS/MS analysis. Format: ADME, organism-based. The settings on record: in vivo, time 1-24 hrs.
A short description of data set [14]: Cmax in CD-1 mouse at 25 mg/kg, po measured after 1 to 24 hrs by HPLC-MS/MS analysis. Format: ADME, organism-based. Particulars: in vivo, time 1-24 hrs.
Data set [15] is described as follows: Oral bioavailability in Sprague-Dawley rat administered at 20 mg/kg measured after 1 to 24 hrs by HPLC-MS/MS analysis. Format: ADME, organism-based. Particulars: in vivo, time 1-24 hrs.
Data set [16] is described as follows: Elimination half life in CD-1 mouse at 10 mg/kg, iv measured after 1 to 24 hrs by HPLC-MS/MS analysis. It is filed as ADME, organism-based. The settings on record: in vivo, time 1-24 hrs, read-out: beta t1/2 (converted).
Data set [17] can be described thus: Clearance in Sprague-Dawley rat at 5 mg/kg, iv measured after 1 to 24 hrs by HPLC-MS/MS analysis. It is filed as ADME, organism-based. Particulars: in vivo, time 1-24 hrs.
Data set [18] is described as follows: in vitro. The settings on record: mouse, liver microsomes.
Description: Microsomal stability in mouse liver microsomes assessed as extraction ratio in presence of NADPH for 0 to 40 mins by LC-MS/MS analysis
Data set [19] is described as follows: Elimination half life in Sprague-Dawley rat at 20 mg/kg, po measured after 1 to 24 hrs by HPLC-MS/MS analysis. Particulars: in vivo, time 1-24 hrs, read-out: beta t1/2 (converted). Format: ADME, organism-based.
Data set [20] in a line: Clearance in CD-1 mouse at 10 mg/kg, iv measured after 1 to 24 hrs by HPLC-MS/MS analysis. Format: ADME, organism-based. Particulars: in vivo, time 1-24 hrs.
Data set [21] addresses T1, Insulin-like growth factor 1 receptor. Kind of data set: Inhibition of human recombinant IGF-1 receptor in presence of ATP by ELISA analysis.
Data set [22] is described as follows: AUC (0 to infinity) in CD-1 mouse at 25 mg/kg, po measured after 1 to 24 hrs by HPLC-MS/MS analysis. It is filed as ADME, organism-based. The settings on record: in vivo, time 1-24 hrs.
In a further data set the target is Cytochrome P450 3A4 (Homo sapiens, UniProt P08684). The experiment in a line: Inhibition of CYP3A4 (unknown origin) using luciferin as substrate in presence of NADPH generating system incubated for 20 mins by luminescent method. It is filed as ADME.
Data set [23] can be described thus: Volume of distribution at steady state in CD-1 mouse at 5 mg/kg, iv measured after 1 to 24 hrs by HPLC-MS/MS analysis. Format: ADME, organism-based. Particulars: in vivo, time 1-24 hrs, read-out: Vdss.
Data set [24] in a line: Plasma concentration in athymic nu/nu CD-1 mouse at 100 mg/kg, po measured at 1 hr by HPLC - UV analysis. Format: ADME, organism-based.
A short description of data set [25]: Elimination half life in CD-1 mouse at 50 mg/kg, po measured after 1 to 24 hrs by HPLC-MS/MS analysis. Format: ADME, organism-based. Particulars: in vivo, time 1-24 hrs, read-out: beta t1/2 (converted).
Data set [26] can be described thus: Plasma concentration in athymic nu/nu CD-1 mouse at 100 mg/kg, po measured at 4 hrs by HPLC - UV analysis. It is filed as ADME, organism-based.
The nature of data set [27]: Plasma concentration in athymic nu/nu CD-1 mouse at 100 mg/kg, po measured at 16 hrs by HPLC - UV analysis. It is filed as ADME, organism-based.
Data set [28] is described as follows: Elimination half life in CD-1 mouse at 5 mg/kg, iv measured after 1 to 24 hrs by HPLC-MS/MS analysis. Format: ADME, organism-based. Particulars: in vivo, time 1-24 hrs, read-out: beta t1/2 (converted).
Data set [29] in a line: Clearance in CD-1 mouse at 5 mg/kg, iv measured after 1 to 24 hrs by HPLC-MS/MS analysis. The settings on record: in vivo, time 1-24 hrs. It is filed as ADME, organism-based.
Data set [30] can be described thus: Cmax in CD-1 mouse at 50 mg/kg, po measured after 1 to 24 hrs by HPLC-MS/MS analysis. Format: ADME, organism-based. Particulars: in vivo, time 1-24 hrs.
Data set [31] is described as follows: Oral bioavailability in CD-1 mouse administered at 50 mg/kg measured after 1 to 24 hrs by HPLC-MS/MS analysis. The settings on record: in vivo, time 1-24 hrs. Format: ADME, organism-based.
A short description of data set [32]: Plasma concentration in athymic nu/nu CD-1 mouse at 100 mg/kg, po measured at 8 hrs by HPLC - UV analysis. It is filed as ADME, organism-based.
The nature of data set [33]: AUC (0 to infinity) in CD-1 mouse at 50 mg/kg, po measured after 1 to 24 hrs by HPLC-MS/MS analysis. Particulars: in vivo, time 1-24 hrs. Format: ADME, organism-based.

Values joined by “and” are separate entries in the source; they are usually repeats but may differ in a detail not shown here. Identical values can stand only once.

T1 sequence (P08069 31-736 limits assumed): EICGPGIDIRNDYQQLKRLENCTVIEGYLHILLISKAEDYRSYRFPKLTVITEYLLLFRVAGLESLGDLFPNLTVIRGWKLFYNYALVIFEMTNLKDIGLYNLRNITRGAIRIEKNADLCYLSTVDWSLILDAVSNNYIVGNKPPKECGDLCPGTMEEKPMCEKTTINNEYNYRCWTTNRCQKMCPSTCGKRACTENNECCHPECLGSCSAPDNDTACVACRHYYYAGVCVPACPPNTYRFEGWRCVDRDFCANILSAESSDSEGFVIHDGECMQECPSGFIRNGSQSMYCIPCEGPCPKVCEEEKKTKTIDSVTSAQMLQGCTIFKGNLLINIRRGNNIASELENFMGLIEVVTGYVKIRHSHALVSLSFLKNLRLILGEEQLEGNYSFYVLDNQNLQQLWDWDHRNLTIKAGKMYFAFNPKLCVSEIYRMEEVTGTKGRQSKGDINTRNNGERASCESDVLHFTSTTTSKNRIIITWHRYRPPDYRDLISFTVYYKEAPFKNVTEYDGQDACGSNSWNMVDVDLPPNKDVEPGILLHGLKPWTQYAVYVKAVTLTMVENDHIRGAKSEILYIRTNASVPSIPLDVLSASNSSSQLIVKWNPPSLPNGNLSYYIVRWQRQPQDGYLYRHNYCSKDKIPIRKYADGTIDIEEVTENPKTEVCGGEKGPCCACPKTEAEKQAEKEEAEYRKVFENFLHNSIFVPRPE
T1 sequence (P08069 741-1367 limits assumed): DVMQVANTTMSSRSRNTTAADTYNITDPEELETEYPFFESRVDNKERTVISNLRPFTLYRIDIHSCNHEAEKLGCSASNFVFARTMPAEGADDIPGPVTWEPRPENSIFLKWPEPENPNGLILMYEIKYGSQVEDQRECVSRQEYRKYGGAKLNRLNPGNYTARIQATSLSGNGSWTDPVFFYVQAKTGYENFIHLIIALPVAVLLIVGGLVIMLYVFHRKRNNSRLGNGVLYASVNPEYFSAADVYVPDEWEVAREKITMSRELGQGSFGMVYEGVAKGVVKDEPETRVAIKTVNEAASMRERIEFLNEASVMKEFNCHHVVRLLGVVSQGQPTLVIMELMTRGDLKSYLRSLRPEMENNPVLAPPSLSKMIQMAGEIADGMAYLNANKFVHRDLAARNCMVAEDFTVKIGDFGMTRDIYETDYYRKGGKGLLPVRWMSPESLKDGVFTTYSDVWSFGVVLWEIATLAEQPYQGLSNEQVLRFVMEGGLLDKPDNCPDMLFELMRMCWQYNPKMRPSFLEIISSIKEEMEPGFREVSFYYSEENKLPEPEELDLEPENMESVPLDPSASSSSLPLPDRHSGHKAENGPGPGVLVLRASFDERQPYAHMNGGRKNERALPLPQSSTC
Sequence of Cytochrome P450 3A4 (P08684 whole entry): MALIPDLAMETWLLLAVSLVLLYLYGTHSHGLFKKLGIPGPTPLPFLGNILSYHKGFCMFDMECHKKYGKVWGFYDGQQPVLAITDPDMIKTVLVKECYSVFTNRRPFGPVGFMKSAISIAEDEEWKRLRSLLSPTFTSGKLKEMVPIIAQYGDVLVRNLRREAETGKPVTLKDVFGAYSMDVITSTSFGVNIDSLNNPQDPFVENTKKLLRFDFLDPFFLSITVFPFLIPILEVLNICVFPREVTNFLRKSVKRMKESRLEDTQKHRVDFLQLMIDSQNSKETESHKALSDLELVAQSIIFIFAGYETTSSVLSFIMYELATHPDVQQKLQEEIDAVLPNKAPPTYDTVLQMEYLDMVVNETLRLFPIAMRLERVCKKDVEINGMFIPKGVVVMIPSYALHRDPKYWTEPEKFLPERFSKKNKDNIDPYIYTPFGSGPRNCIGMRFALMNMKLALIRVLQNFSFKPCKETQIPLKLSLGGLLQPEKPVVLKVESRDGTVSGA

Broadly, the AUC(0-inf) is total exposure, with the tail of the curve extrapolated. Lower therefore signals less exposure. Usually IC50 stands for the concentration at which inhibition is half-maximal. One may read the bioavailability as the share of a dose that reaches the circulation, judged against a reference dose that is usually intravenous. By Cmax is commonly meant the peak of the concentration-time curve. For orientation: clearance means a measure of how efficiently the substance is removed, as volume per time. Take `CN1CCN([C@H]2C[C@@H](c3nc(-c4ccc5ccc(-c6ccccc6)nc5c4)c4c(N)nccn43)C2)CC1`: the results for the AUC(0-inf) in data set [1] and in data set [22] were 28700 ng·h/mL and 34500 ng·h/mL, respectively. In addition, the hepatic extraction ratio was found to be 0.21 in data set [2], 0.59 in the data set “in vitro [4]”, 0.5 in [6] and 0.53 in “in vitro [18]”. Moreover, the concentration at 24 h in data set [3] was determined as 740 nM; in [11], 1040 nM. Moreover, the values for the Vd in data set [5] and in [9] were 8 L/kg and 21 L/kg, respectively. Also, the half-life was 20 h in [7], 23.6 h in data set [12], 5 h in data set [16] and 28.7 h in [19]. Also, the IC50 turned out to be 19 nM in data set [8], 24 nM in data set [21] and 8300 nM at Cytochrome P450 3A4. In addition, the bioavailability in data set [10] and in data set [15] was 100% in each case. For the same molecule, the Cmax in [13] was found to be 1350 nM; in [14], 2200 nM. In addition, the figures for the clearance in data set [17] and in [20] were 16 mL/min/kg and 19 mL/min/kg, respectively.
As for `Nc1nccn2c(C3CCC3)nc(-c3ccc4ccc(-c5ccccc5)nc4c3)c12`, the Vd in [23] was found to be 6.25 L/kg. In addition, the concentration at 1 h in data set [24] is 3200 ng/mL and 8.19 µM. The half-life in data set [25] and in data set [28] was 0.98 h in each case. In data set [26], the concentration at 4 h is 1810 ng/mL and 4.62 µM. For the same molecule, the concentration at 16 h in [27] is 1030 ng/mL and 2.64 µM. The clearance in [29] is 90 mL/min/kg. This molecule also showed a Cmax in data set [30] of 2680 nM. Moreover, in data set [31], the bioavailability was found to be 56%. Moreover, the concentration at 8 h in [32] is 3110 ng/mL and 7.95 µM. The concentration for half-maximal inhibition (IC50) at Cytochrome P450 3A4 was found to be 3300 nM. The AUC(0-inf) in [33] worked out at 5170 ng·h/mL.
`Nc1nccn2c1c(-c1ccc3ccc(-c4ccccc4)nc3c1)nc2[C@H]1CC[C@H](C(N)=O)CC1`: the IC50 in data set [8] was 42 nM. Further, in data set [30], the peak concentration (Cmax) was found to be 11400 nM. The molecule also had a bioavailability in data set [31] of 77%. Besides, the area under the curve AUC(0-inf) in [33] is 52500 ng·h/mL.
Turning to `Nc1nccn2c(C3CC(O)C3)nc(-c3ccc4ccc(-c5ccccc5)nc4c3)c12` (stereo not drawn), the concentration at 1 h in [24] was 4590 ng/mL and 11.3 µM. For the same molecule, in data set [26], the concentration at 4 h was 3660 ng/mL and 8.99 µM. Further, the concentration at 16 h in [27] is 2360 ng/mL and 5.8 µM. Also, the concentration at 8 h in data set [32] was 4650 ng/mL and 11.4 µM.

These data come from ChEMBL document CHEMBL5661980, “Discovery of OSI-906: a selective and orally efficacious dual inhibitor of the IGF-1 receptor and insulin receptor” (Future Med Chem, 2009).
